Laboratory results taken from patent US8586752B1, “Crystalline S-omeprazole strontium hydrate, method for preparing same, and pharmaceutical composition containing same” (Hanmi Science Co., Ltd, priority 2005, dated 2013).
Where two headings read alike, the source gives them in different places.

Assays:
[1] = Water-solubility test; assay type: physicochemical; conditions: for Solubility: deionized water to saturation, 25° C., HPLC condition A; for Saturation pH: saturated solution in deionized water
Description: The S-omeprazole strontium tetrahydrate of the present invention and the S-omeprazole magnesium trihydrate were each dissolved in deionized water to saturation. The water-solubility of each of the saturated solutions was analyzed by HPLC under the previously described condition A and the amount of each salt hydrate dissolved was measured.

[2] = Hygroscopicity test; assay type: physicochemical; conditions: for Moisture content: exposed
Description: The inventive S-omeprazole strontium was exposed in the naked state at 25 to 40° C. and 40 to 90% relative humidity for a period of over 15 days. The moisture contents of the inventive salt measured with a Karl-Fisher titrator at storage time 0, 3, 7 and 15 days are shown in Table 4.

[3] = Heat stability test of the inventive salt; assay type: physicochemical; conditions: for Amount of titrated S-omeprazole: sealed, 60° C. and 75% relative humidity
Description: The salt of Example 1 was stored in the sealed state under a stressed condition of 60° C. and 75% relative humidity, and the remaining amounts of active S-omeprazole after 7, 14, 21 and 28 days were measured by HPLC condition A. The results are shown in Table 5.

[4] = Storage stability under long-term, accelerated aging and stressed conditions; assay type: physicochemical; conditions: 25° C./60% RH exposed; 40° C./75% RH exposed; 60° C./75% RH closed; 2 to 4 weeks
[5] = system: rats; conditions: dose of 633 mg/kg/day; cited from earlier work

For COc1ccc2nc([S@@+]([O-])Cc3ncc(C)c(OC)c3C)[nH]c2c1 [S-omeprazole strontium tetrahydrate, S-omerprazole strontium tetrahydrate], the Solubility ([1]; 25 °C, water, thermodynamic from solid, read-out: Solubility) was ~17.6 mg/mL, the Solubility [1] was 17.6 mg/mL and the “Saturation pH” value [1] was 10.2. The “Water solubility relative to S-omeprazole magnesium trihydrate” value ([1]; times higher than S-omeprazole magnesium trihydrate) was “at least 10 times”, the Moisture content ([2]; 40% relative humidity (25° C.), 0 day) was 9.0 wt % and the Moisture content ([2]; 40% relative humidity (25° C.), 3 days) was 8.9 wt %. For the same compound, the Moisture content ([2]; 40% relative humidity (25° C.), 7 days) was 8.7 wt %, the Moisture content ([2]; 40% relative humidity (25° C.), 15 days) was 8.8 wt % and the Moisture content ([2]; 60% relative humidity (25° C.), 0 day) was 9.0 wt %. For the same compound, the Moisture content ([2]; 60% relative humidity (25° C.), 3 days) was 9.0 wt %, the Moisture content ([2]; 60% relative humidity (25° C.), 7 days) was 9.2 wt % and the Moisture content ([2]; 60% relative humidity (25° C.), 15 days) was 9.1 wt %. It also gave a Moisture content ([2]; 75% relative humidity (40° C.), 0 day) of 9.0 wt %, a Moisture content ([2]; 75% relative humidity (40° C.), 3 days) of 8.9 wt % and a Moisture content ([2]; 75% relative humidity (40° C.), 7 days) of 9.0 wt %. For the same compound, the Moisture content ([2]; 75% relative humidity (40° C.), 15 days) was 8.9 wt %, the Moisture content ([2]; 90% relative humidity (35° C.), 0 day) was 9.0 wt % and the Moisture content ([2]; 90% relative humidity (35° C.), 3 days) was 9.2 wt %. For the same compound, the Moisture content ([2]; 90% relative humidity (35° C.), 7 days) was 9.3 wt %, the Moisture content ([2]; 90% relative humidity (35° C.), 15 days) was 9.2 wt % and the Hygroscopicity ([2]; under a highly humid condition) was “less hygroscopic”. The Initial moisture content ([2]; under a low humidity condition) was “maintained”, the “Amount of titrated S-omeprazole” value ([3]; 7 days) was 997 µg/mg and the “Amount of titrated S-omeprazole” value ([3]; 14 days) was 998 µg/mg. The “Amount of titrated S-omeprazole” value ([3]; 21 days) was 997 µg/mg, the “Amount of titrated S-omeprazole” value ([3]; 28 days) was 997 µg/mg and the “Amount of titrated S-omeprazole” value ([3]; Initial) was 997 µg/mg. The Heat stability ([3]; summary of Table 5 (60° C., 75% relative humidity, sealed, up to 28 days)) was “highly stable” and the Stability on storage [4] was “maintain the initial moisture content, purity and crystallinity”.

With COc1ccc2[n-]c([S+]([O-])Cc3ncc(C)c(OC)c3C)nc2c1.COc1ccc2[n-]c([S+]([O-])Cc3ncc(C)c(OC)c3C)nc2c1.O.O.O.[Mg+2] (centres unmarked) [Magnesium trihydrate, S-Omeprazole Magnesium Trihydrate, reference compound] the Solubility [1] was 1.5 mg/mL and the “Saturation pH” value [1] was 9.9.

For [Sr+2] [strontium, Strontium], the Safety [5] is listed as “no safety problems”.
